Measured values published in patent US20190369122A1, “METABOLIC DISORDERS” (priority 2016, published 2019).

Legend:
[1] = tested on: CONVR mice; experiment: Metabolic cages (PhenoMaster) in CONVR mice; format: in vivo, mouse; conditions: 100 μg i.p. twice a day for 3 days
Procedure: Mice were singly housed for two days before being transferred to the PhenoMaster cages, and allowed an additional 2 days to acclimatize to the new cage before taking measurements. Parameters were automatically measured every 15 min for 5 days. During the measurements, the mice had free access to water and food. […] Oxygen consumption (VO2) was calculated from measurements of oxygen and carbon dioxide concentration in the reference cage compared to the sample cage. Measurements of oxygen consumption and energy expenditure were adjusted to lean body mass, which was determined by MRI (EchoMRI, Houston, Tex., USA).

[2] = tested on: insulin signaling components; experiment: IRS and Akt in liver, muscle and WAT of CONVR mice; format: in vivo, mouse
Procedure: An intraperitoneal glucose tolerance test (using 1 g glucose per kg body weight) was then performed after a 4 h fast. Blood glucose levels were measured from tail blood using HemoCue201+analyzer (HemoCue, Angelholm, Sweden). Liver and plasma samples were collected after a 4 h fast. Mice were under isoflurane anesthesia and killed by cervical dislocation. Fresh liver was taken and snap-frozen in liquid nitrogen and stored at −80° C. until protein extraction.
(§1) Snap-frozen liver and harvested cells were lysed in buffer containing 50 mM Tris-HCl (pH 7.4), 150 mM NaCl, 1 mM EDTA, 1 mM Na3VO4, 20 mM NaF, 10 mM glycerophosphate, 1 mM PMSF, 10% glycerol, 1% Triton X-100 and protease inhibitor cocktail. For immunoprecipitation, the cell lysates were obtained in 0.3% CHAPS-containing lysis buffer, sonicated and centrifuged at 20,000 g for 15 min at 4° C., and the supernatant was incubated with 20 μl of anti-FLAG beads (Sigma) at 4° C. for 4 h under gentle agitation.

[3] = biological target: T1, mTORC2 (Homo sapiens, UniProt P42345); experiment: mTORC2 kinase activity assay; format: biochemical
T1 construct: expressed in transfected cells; host or cells: HEK293
Procedure: HEK293 cells were transfected with 1 μg of HA Rictor and 0.5 μg of Flag mTOR for mTORC2 activity assay, lysed with 0.3% CHAPS-containing lysis buffer, sonicated and centrifuged at 20,000 g for 15 min at 4° C., and the supernatant was incubated with 2 μg of anti-HA antibody at 4° C. for overnight under gentle agitation. Immunocomplexes were then collected with protein A-Sepharose beads (RepliGen, Needham, Mass.) at 4° C. for 2 h and washed three times with 0.3% CHAPS-containing lysis buffer. […] Kinase reaction was started by adding 100 μM ATP for 15 min at 37° C. and stopped by adding 5× Laemmli buffer.

[4] = Targeted measurements in portal and peripheral blood, first cohort; conditions: human portal vs peripheral blood
Description: Two human cohorts were used in this study. The first cohort comprised five obese subjects with type 2 diabetes and ten BMI-matched subjects without type 2 diabetes who were undergoing laparoscopic Roux-and-Y gastric bypass surgery at the Slotervaart Hospital, Amsterdam, the Netherlands, see Table 2. Subjects were fasted overnight before the morning of the surgery, and a peripheral venous sample was taken just before the patient went into the operating room. Anthropometric measurements and a stool sample were also taken before surgery. During the surgery, a portal vein sample (vena puncture) was taken as previously described. Fasting glucose (by glucose meters, Roche Diagnostics), insulin (by an electrochemiluminescence immunoassay, Roche Modular System) and HbA1c (Menarini Diagnostic) were measured in the peripheral blood. All participants gave informed consent before the surgery and the protocol was approved by the Medical Ethical Committee of the Slotervaart Hospital, Amsterdam, the Netherlands.
The samples were then reconstituted with 5% HCl in n-butanol at 70° C. for 1 h, allowing n-butyl ester to be formed. […] Samples (5 μl) were injected onto a C18 BEH column (2.1×100 mm with 1.7 μm particles; Waters, Milford, Mass.) using a gradient consisting of water with 0.1% formic acid (A-phase) and acetonitrile with 0.1% formic acid (B-phase). […]

[5] = tested on: mTORC2; experiment: mTOR modification in mTORC2 (Rictor immunoprecipitation), HEK293; format: cell-based, human
Procedure: as §1

[6] = tested on: IRS1; experiment: Ubiquitination of IRS1; format: cell-based; conditions: 6 h treatment
Procedure: Cells were lysed under denaturing condition with 100 μl buffer A containing 2% SDS, and the cell lysates were transferred to a 1.5-ml microcentrifuge tube. The tube was placed on a hot plate immediately at 95° C. for 10 min. The cell lysates were sonicated and 700 μl of buffer A without SDS was added. The samples were incubated at 4° C. for 30 min, followed by centrifugation (20,000 g, 20 min). The supernatant was incubated with 20 μl of anti-FLAG beads (Sigma) at 4° C. for 4 h under gentle agitation.

[7] = biological target: T2, p38γ (Homo sapiens, UniProt P53778); experiment: In vitro kinase assay; format: biochemical
T2 construct: purchased Abcam ab125651
T2 sequence (P53778 1-367): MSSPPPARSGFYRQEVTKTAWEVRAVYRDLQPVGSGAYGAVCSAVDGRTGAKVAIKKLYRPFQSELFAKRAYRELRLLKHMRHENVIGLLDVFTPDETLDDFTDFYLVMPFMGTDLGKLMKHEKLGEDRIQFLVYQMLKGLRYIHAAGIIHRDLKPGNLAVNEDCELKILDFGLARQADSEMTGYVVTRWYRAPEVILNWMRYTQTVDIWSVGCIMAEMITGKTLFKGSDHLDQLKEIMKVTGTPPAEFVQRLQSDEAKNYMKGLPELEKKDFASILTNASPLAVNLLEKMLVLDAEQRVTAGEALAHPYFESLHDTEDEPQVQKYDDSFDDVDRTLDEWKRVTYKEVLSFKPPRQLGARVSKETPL
Procedure: 400 ng of recombinant p62 (Abcam, ab95320) and 200 ng of recombinant p38γ (Abcam, ab125651) were incubated in a kinase assay buffer [25 mM MOPS (pH 7.2), 12.5 mM beta-glycerol-phosphate, 25 mM MgCl2, 5 mM EGTA, 2 mM EDTA and 1 mM DTT] for 15 min on ice.

[8] = tested on: amino acid-deprived primary hepatocytes; experiment: Amino acid-deprived primary hepatocytes (immunoblot); format: cell-based, mouse; conditions: absence of amino acids; 100 μM for 2 h
Procedure: Primary hepatocytes were isolated from C57BL/6J mice by digesting liver with perfusion of collagenase type IV as described previously. After perfusion, 16×10^5 cells were plated on collagen-coated 60 mm dishes in Dulbecco's modified Eagle's medium (DMEM)/F12 supplemented with fetal bovine serum (FBS), penicillin/streptomycin and 100 nM dexamethasone. After 4 h, the medium was changed to DMEM/F12 containing penicillin/streptomycin.

## O=C(O)CCc1cnc[nH]1 [imidazole propionate]
[1]
  energy expenditure in the early dark phase: significantly reduced
  total locomotor activity: not significantly reduced
[2]; 3-day injection vs vehicle
  basal Akt S473 phosphorylation in liver, muscle and WAT: higher
[2]; 3-day injections
  IRS levels in liver, muscle or WAT: did not reduce
[3]
  in vitro mTORC2 kinase activity towards Akt: not altered
[4]
  metabolism inferred from similar portal and peripheral blood concentrations: not metabolized
[5]; HEK293, 2 h incubation
  modulation of mTORC2: not
[5]; Rictor immunoprecipitation
  mTOR S2448 or S2481 phosphorylation in mTORC2: unaffected
[6]
  ubiquitination of IRS1: promoted
[7]; recombinant p38γ and p62, ATP 50 μM
  p62 phosphorylation (T269 and S272) by p38γ: enhanced
[7]; together with ATP
  p38γ autophosphorylation: induced
[8]
  S6K1 phosphorylation: strongly induced
